# Several values for one entry are separate records, joined by “and”; a condition that tells them apart may be missing. Equal values may be shown once.
# Experiments:
# [1] = test system: Transgenic plants harboring DNA from the plasmids pCGS202 and pCGS601; assay: Chemical induction of transgenic maize plants, photon emission of leaves after luciferin spray; assay type: in vivo
# Experimental: This mixture is applied directly to one leaf of a plant while a control formulation mixture containing ethanol instead of tebufenozide is applied to another leaf. Treatments are left on the leaves between 24-48 hours. Plants are then treated by spraying the leaves with a mixture containing 7.5 mM luciferin and 1% surfactant and incubating for 5 minutes. Either whole plants or tissues are placed into a dark box and photon emission is monitored using a digital camera and software that counts the accumulated photons that are emitted. Both the image of the tissue and the total photon count is recorded.
# Plants at V5 stage are treated as above. The plants treated with tebufenozide emit substantial amounts of light compared with those treated with ethanol only. The table below contains actual counts of leaf samples from maize plants transformed with pCGS601 and pCGS202.
# Late stage post pollinated maize plants are also treated as above. Leaves are analyzed as above and the total photon counts are recorded in the table below.
# [2] = test system: GAL4×10-Luciferase vector pCGS206; assay: Tobacco BY2 suspension cells bombarded with receptor vector and GAL4x10-Luciferase vector, GUS-normalized luciferase; assay type: cell-based, Nicotiana tobaccum L. cv. Bright Yellow 2; conditions: absence of the EcR receptor
# Experimental: The GAL4-MV expression vector pCGS432 and the GAL4×10-Luciferase vector pCGS206 are simultaneously delivered into BY2 suspension cells (Nicotania tobacum L. cv. Bright Yellow 2) by high velocity microprojectile bombardment. A β-glucuronidase (GUS) vector is included as an internal control for transfection efficiency between samples. Transfected cells are incubated overnight in the presence and absence of the appropriate chemical ligand (tebufenozide (Teb), RH5889) in BY2 liquid culture media. After incubation, the cells are harvested and lysed by mechanical disruption. Cellular debris is removed by centrifugation at 20,800 g at 4° C. for 10 minutes. Cell lysates are assayed for luciferase expression levels using the Promega Luciferase Kit (Promega cat #E1500) using a Turner Designs TD 20/20 luminometer. GUS expression levels are determined using the GUS-Light kit (Tropix). […]
# The GAL4-Manduca EcR-C1 expression vectors (pCGS441, pCGS442, and pCGS443) and the GAL4×10-Luciferase vector pCGS206 (Example 10) are simultaneously delivered into BY2 suspension cells (Nicotiana tobaccum L. cv. Bright Yellow 2) by high velocity microprojectile bombardment. […] Cell lysates are assayed for luciferase expression levels using the Promega Luciferase Kit (cat #E1500) using a Turner Designs TD 20/20 luminometer. β-glucuronidase expression levels are determined using the GUS-Light kit (Tropix). […]
# [3] = test system: Transgenic maize plants containing pCGS601 and pCGS202; assay: Chemical induction of transgenic maize plants, luciferase activity of leaf extract; assay type: in vivo
# Experimental: A formulation mixture containing 10% of a 2.0 mM tebufenozide solution in ethanol and 1% surfactant is applied directly to the leaves of the transgenic maize plants. The solution is left on the leaves between 18 and 40 hours. Leaves are then frozen in liquid nitrogen and ground to a powder. Subsequently, leaves are homogenized in cell culture lysis reagent (CCLR; 25 mM Tris-phosphate pH 7.8, 2 mM DTT, 2 mM 1,2-diaminoclyclohexane-N,N,N′,N′-tetraacetic acid, 10% glycerol, and 1% triton X-100). After spinning for 7 minutes at 14,000 g to pellet the cell debris, 20 μl of the supernatant is assayed for luciferase activity by the standard method (as described in the preceding examples).
# Six plants are treated with chemistry: three with ethanol as control and three with tebufenozide. After 40 hours, plants are assayed for luciferase activity.
# To determine fold induction with tebufenozide, leaves of individual plants are compared for activity. Using the same plant, one leaf is treated with ethanol and another with tebufenozide. The plants are incubated for 18 hours and assayed for luciferase activity as described above.
# pCGS154 reporter = assay: Transient transfection of S2 Drosophila cells with luciferase reporter and EcR receptor plasmids; assay type: cell-based; conditions: for Fold Activation With Chemistry Assay #1 / Fold Activation With Chemistry Assay #2: Example 8, 0.2 μM tebufenozide; for Fold Activation With Chemistry: Example 9, 0.2 μM tebufenozide
# Experimental: An in vivo cell based assay is designed to measure transcriptional activation by the receptors of a reporter plasmid. S2 Drosophila cells (ATCC CRL-1963) are transiently transfected with luciferase reporter and receptor expression plasmids using the calcium phosphate precipitation procedure (Di Nocera and David (1983) PNAS 80, 7095-7098). S2 cells are plated in 96 well format at a density of 2×10^5 in 166.6 μl of Schneider's Drosophila media supplemented with antibiotics and 10% heat inactivated fetal bovine serum (GIBO-BRL). The following day, 33.4 μl of a calcium phosphate precipitate containing 3-6 ng of pCGS154 reporter plasmid, 3-6 ng of EcR receptor plasmid along with salmon sperm DNA to a total of 400 ng DNA per well is added. Chemical ligands are added 16-24 hours after DNA addition to the cells. Cells are then harvested and extracted 24 hours after chemistry addition following the procedures for the luciferase assay by centrifuging and resuspending the cell pellets in 100 μl of cell culture lysis reagent (Promega). Luciferase activity is quantitated using chemiluminescence (Promega) using an analytical luminescence model 2001 luminometer.
# S2 cells contain Drosophila EcR and USP. The endogenous USP can be used as the heterodimerization partner for EcR or exogenous USP expression plasmid can be added to the assay.
# To compare the activities of Manduca and Drosophila EcR, S2 cells are transiently transfected using the above procedure with the reporter plasmid pCGS 154 and either full-length Drosophila EcR, DDV, full-length Manduca EcR, or MMV. Tebufenozide at 0.2 µM and 2 μM is used as the chemical ligand. Luciferase assays are performed as described above. All of the results are normalized as a ratio of activity to the light unit value for the pCGS154 reporter without chemistry.
# The activities of the EcR-VP16 chimeras are compared by transiently transfecting S2 cells as described in Example 3. Tebufenozide is added to the cells at 0.2 μM concentration. Results are expressed as fold activation, a ratio of the activity of the constructs with chemistry added as compared to activity of the constructs without chemistry. All results are normalized to the luciferase activity of the pCGS154 reporter without receptor addition.
# The activities of the EcR-VP16 chimeras are compared by transiently transfecting S2 cells as in Example 3. Tebufenozide is added to the cells at 0.2 μM concentration. Results are expressed as fold activation of constructs with chemistry as compared to without chemistry. All results are normalized to the luciferase activity of the pCGS154 reporter without receptor.
# The activities of the EcR-VP16 chimeras are compared by transiently transfecting S2 cells as in Example 3. Tebufenozide is added to the cells at 0.2 μM concentration. Results are expressed as fold activation of constructs with chemistry as compared to without chemistry addition. All results are normalized to the luciferase activity of the pCGS154 reporter without receptor.
molecule,measurement,setting,value
CCc1ccc(C(=O)NN(C(=O)c2cc(C)cc(C)c2)C(C)(C)C)cc1 [tebufenozide],Fold Induction,[1]; in vivo,116 Fold
same,Total Photons Counted,"[1]; leaf, late stage post pollinated maize plants","110,766"
same,Fold Induction,"[1]; leaf, late stage post pollinated maize plants, tebufenozide vs ethanol",30 Fold
same,Total Photons Counted,"[1]; leaf, plants at V5 stage, 2.0 mM RH5992 in 1% surfactant, 24-48 hours","187,784"
same,activation of the luciferase reporter without receptor,[2],does not activate the reporter in the absence of the EcR receptor
same,Activity (luciferase),"[3]; leaves treated with 10% of 2.0 mM tebufenozide solution, 1% surfactant, 40 hours, individual plants 4-6",2729 and 745.3 and 2373
same,fold induction after treatment with tebufenozide,"[3]; maize, in vivo, 18 h, 0.2 mM",10-40 fold
same,induction above the ethanol controls,"[3]; transgenic maize plants, 40 hours",significant induction
"DBV: EcR chimera: Drosophila melanogaster C+D domains, black cutworm E domain, VP16; SEQ ID NO:73-74 (protein) MGRDDLSPSSSLNGYSANESCDAKKSKKGPAPRVQEELCLVCGDRASGYHYNALTCEGCKGFFRRSVTKSAVYCCKFGRACEMDMYMRRKCQECRLKKCLAVGMRPECVVPENQCAMKRREKKAQKEKDKMTTSPSSQHGGNGSLASGGGQDFVKKEILDLMTCEPPQHATIPLLPDEILAKCQARNIPSLTYNQLAVIYKLIWYQEGYEQPSEEDLKRVTQTWQSDEDEEESDMPFRQITEMTILTVQLIVEFAKGLPGFAKISQSDQITLLKACSSEVMMLRVARRYDAATDSVLFANNQAYSRDNYRKAGMSYVIEDLLHFCRCMYSMMMDNVHYALLTAIVIFSDRPGLEQPLLVEEIQRYYLNTLRVYILNQNSASPRCPVVFAKILGILTELRTLGMQNSNMCISLKLKNRKLPPFLEEIWDVESRGKLAPPTDVSLGDELHLDGEDVAMAHADALDDFDLDMLGDGDSPGPGFTPHDSAPYGALDMADFEFEQMFTDALGIDEYGG",Fold Activation With Chemistry Assay #1,pCGS154 reporter,17.37 fold
same,Fold Activation With Chemistry Assay #2,pCGS154 reporter,3.94 fold
"CCV: EcR chimera: Chironomus tentans C+D and E domains, VP16; SEQ ID NO:87-88 (protein) MKLDDGNMSVHMGDGLDGKKSSSKKGPVPRQQEELCLVCGDRASGYHYNALTCEGCKGFFRRSVTKNAVYCCKFGHECEMDMYMKRKCQECRLKKCLAVGMRPECVVPENQCAIKRKEKKAQKEKDKVPGIVGSNTSSSSLLNQSLNNGSLKNLEISYREELLEQLMKCDPPPHPMQQLLPEKLLMENRAKGTPQLTANQVAVIYKLIWYQDGYEQPSEEDLKRITTELEEEEDQEHEANFRYITEVTILTVQLVVEFAKGLPAFIKIPQEDQITLLKACSSEVMMLRMARRYDHDSDSILFANNTAYTKQTYQLAGMEETIDDLLHFCRQMYALSIDNVEYALLTAIVIFSDRPGLEKAEMVDIIQSYYTETLKVYIANRHGGESRCSVQFAKLLGILTELRTMGNKNSEMCFSLKLRNRKLPRFLEEVWDVGDVKLAPPTDVSLGDELHLDGEDVAMAHADALDDFDLDMLGDGDSPGPGFTPHDSAPYGALDMADFEFEQMFTDALGIDEYGG",Fold Activation With Chemistry,pCGS154 reporter,2.0 fold
EBV (protein) MGREELSPASSVNGCSTDGEARRQKKGPAPRQQEELCLVCGDRASGYHYNALTCEGCKGFFRRSVTKNAVYICKFGHACEMDMYMRRKCQECRLKKCLAVGMRPECVVPETQCAQKRKEKKAQREKDKLPVSTTTVDDHMPPIMQCDPPPPEAARILECLQHEVVPRFLSEKLMEQNRLKNIPPLTANQQFLIARLVWYQEGYEQPSEEDLKRVTQTWQSDEDEEESDMPFRQITEMTILTVQLIVEFAKGLPGFAKISQSDQITLLKACSSEVMMLRVARRYDAATDSVLFANNQAYSRDNYRKAGMSYVIEDLLHFCRCMYSMMMDNVHYALLTAIVIFSDRPGLEQPLLVEEIQRYYLNTLRVYILNQNSASPRCPVVFAKILGILTELRTLGMQNSNMCISLKLKNRKLPPFLEEIWDVESRGKLAPPTDVSLGDELHLDGEDVAMAHADALDDFDLDMLGDGDSPGPGFTPHDSAPYGALDMADFEFEQMFTDALGIDEYGG,Fold Activation With Chemistry Assay #1,pCGS154 reporter,975.0 fold
same,Fold Activation With Chemistry Assay #2,pCGS154 reporter,273.7 fold
"MCV: EcR chimera: Manduca sexta C+D domains, Chironomus tentans E domain, VP16; SEQ ID NO:91-92 (protein) MGREELSPASSINGCSTDGEPRRQKKGPAPRQQEELCLVCGDRASGYHYNALTCEGCKGFFRRSVTKNAVYICKFGHACEMDMYMRRKCQECRLKKCLAVGMRPECVVPESTCKNKRREKEAQREKDKLPVSTTTVDDHMPAIMQCDPPPPEAARIHEVVPRFLTEKLMEQNRLKNVTPLSANQKSLIARLVWYQDGYEQPSEEDLKRITTELEEEEDQEHEANFRYITEVTILTVQLVVEFAKGLPAFIKIPQEDQITLLKACSSEVMMLRMARRYDHDSDSILFANNTAYTKQTYQLAGMEETIDDLLHFCRQMYALSIDNVEYALLTAIVIFSDRPGLEKAEMVDIIQSYYTETLKVYIANRHGGESRCSVQFAKLLGILTELRTMGNKNSEMCFSLKLRNRKLPRFLEEVWDVGDVKLAPPTDVSLGDELHLDGEDVAMAHADALDDFDLDMLGDGDSPGPGFTPHDSAPYGALDMADFEFEQMFTDALGIDEYGG",Fold Activation With Chemistry,pCGS154 reporter,553.3 fold

# — patent US6958236B2, “Control of gene expression in plants” (priority 2000, dated 2005)
